## CCCCCCCCC(=O)NCc1ccc(O)c(OC)c1
In DMSO, 293.2 K
  solubility (mole fraction): 0.257
In DMSO, 298.2 K
  solubility (mole fraction): 0.315
In DMSO, 303.2 K
  solubility (mole fraction): 0.403
In DMSO, 308.2 K
  solubility (mole fraction): 0.495
In DMSO, 313.2 K
  solubility (mole fraction): 0.595
In DMSO, 318.2 K
  solubility (mole fraction): 0.671
In DMSO, 323.2 K
  solubility (mole fraction): 0.763
In MTBE, 293.2 K
  solubility (mole fraction): 0.019
In MTBE, 298.2 K
  solubility (mole fraction): 0.0472
In MTBE, 303.2 K
  solubility (mole fraction): 0.114
In MTBE, 308.2 K
  solubility (mole fraction): 0.27
In MTBE, 313.2 K
  solubility (mole fraction): 0.427
In MTBE, 318.2 K
  solubility (mole fraction): 0.569
In MTBE, 323.2 K
  solubility (mole fraction): 0.729
In acetone, 293.2 K
  solubility (mole fraction): 0.161
In acetone, 298.2 K
  solubility (mole fraction): 0.229
In acetone, 303.2 K
  solubility (mole fraction): 0.299
In acetone, 308.2 K
  solubility (mole fraction): 0.39
In acetone, 313.2 K
  solubility (mole fraction): 0.499
In acetone, 318.2 K
  solubility (mole fraction): 0.6
In acetone, 323.2 K
  solubility (mole fraction): 0.714
In acetonitrile, 293.2 K
  solubility (mole fraction): 0.0118
In acetonitrile, 298.2 K
  solubility (mole fraction): 0.0357
In acetonitrile, 303.2 K
  solubility (mole fraction): 0.0943
In acetonitrile, 308.2 K
  solubility (mole fraction): 0.232
In acetonitrile, 313.2 K
  solubility (mole fraction): 0.38
In acetonitrile, 318.2 K
  solubility (mole fraction): 0.553
In acetonitrile, 323.2 K
  solubility (mole fraction): 0.714
In ethyl acetate, 293.2 K
  solubility (mole fraction): 0.0625
In ethyl acetate, 298.2 K
  solubility (mole fraction): 0.117
In ethyl acetate, 303.2 K
  solubility (mole fraction): 0.199
In ethyl acetate, 308.2 K
  solubility (mole fraction): 0.309
In ethyl acetate, 313.2 K
  solubility (mole fraction): 0.421
In ethyl acetate, 318.2 K
  solubility (mole fraction): 0.566
In ethyl acetate, 323.2 K
  solubility (mole fraction): 0.712
In methanol, 293.2 K
  solubility (mole fraction): 0.219
In methanol, 298.2 K
  solubility (mole fraction): 0.28
In methanol, 303.2 K
  solubility (mole fraction): 0.349
In methanol, 308.2 K
  solubility (mole fraction): 0.428
In methanol, 313.2 K
  solubility (mole fraction): 0.489
In methanol, 318.2 K
  solubility (mole fraction): 0.583
In methanol, 323.2 K
  solubility (mole fraction): 0.736
In n-hexane, 293.2 K
  solubility (mole fraction): 4.06e-05
In n-hexane, 298.2 K
  solubility (mole fraction): 7e-05
In n-hexane, 303.2 K
  solubility (mole fraction): 0.000119
In n-hexane, 308.2 K
  solubility (mole fraction): 0.000189
In n-hexane, 313.2 K
  solubility (mole fraction): 0.000296
In n-hexane, 318.2 K
  solubility (mole fraction): 0.000457
In n-hexane, 323.2 K
  solubility (mole fraction): 0.000595
In water, 293.2 K
  solubility (mole fraction): 1.64e-05
In water, 298.2 K
  solubility (mole fraction): 1.93e-05
In water, 303.2 K
  solubility (mole fraction): 2.32e-05
In water, 308.2 K
  solubility (mole fraction): 2.71e-05
In water, 313.2 K
  solubility (mole fraction): 3.24e-05
In water, 318.2 K
  solubility (mole fraction): 3.7e-05
In water, 323.2 K
  solubility (mole fraction): 4.27e-05
